From patent US9228015B2, “Nogo receptor antagonists and methods of increasing neurite outgrowth” (Biogen Idec MA Inc., priority 2006, dated 2016)
Blank lines part the entries; values can stand above or below the molecule they belong to.

Key:
[1] = system: chick dorsal root ganglion neurons, myelin-induced neurite outgrowth inhibition; experiment: Neurite outgrowth of embryonic day 13 chick DRG neurons on myelin (Example 29); type: cell-based; conditions: 8 μM NgR(310)ecto-Fc; MP 10 μg/nl as printed
Description: In investigating combined treatment with methyprednisolone (MP) and NgR(310)ecto-Fc for spinal cord injury (SCI), we sought to verify that these reagents have independent mechanisms of action. Briefly, myelin was dried overnight in poly-L-lysine-precoated plates (Becton Dickinson, Bedford, Mass., USA) at 80 or 400 ng/well (2.5 and 12.7 ng/mm^2, respectively). Wells were then coated with 10 µg/ml laminin (Calbiochem, La Jolla, Calif., USA) for 1 hour at foom temperature (22-24 C). Embryonic day 13 chick dorsal root ganglion neurons were dissociated and plated for 6-8 hours as previously described (GrandPre et al., 2000; Fournier et al., 2001). Neurons were treated with 8 μM NgR(310)ecto-Fc in the presence or absence of 10 μg/nl MP (Pharmacia, Kalamazoo, Mich., USA) for the entire outgrowth period. Neurons were then fixed and stained with βIII tubulin antibody (Covance, Princeton, N.J., USA) and neurite outgrowth was quantified using an automated cellular imaging and analysis system (Axon Instrument, Union City, Calif.; USA). Neurite outgrowth per cell was normalized to the average of duplicate control wells for each experiment (n=3). […] These in vitro data support the hypothesis that MP and NgR(310)ecto-Fc will enhance SCI recovery in a sequentially effective manner.

[2] = system: 7E11; experiment: Epitope mapping: 7E11 binding to protease digest peptides of NgR1; design: species or system murine; conditions: trypsin or Asp-N digest, MS analysis
Description: The 7E11 binding site was further analyzed by testing tryptic peptide digests of sNgR310. […] 7E11 bound only a single tryptic digest peptide, providing additional evidence that 7E11 binds to a single epitope on NgR1. Subsequent mass spectroscopy (MS) and sequence analyses identified the bound peptide to be […] (SEQ ID NO: 26).
The […] peptide (SEQ ID NO: 1) was subjected to further mapping analysis. The peptide was digested with trypsin, which yielded two major fragments, […] (SEQ ID NO: 27) and VVDPTT (SEQ ID NO: 28), and the ability of 7E11 to bind them was tested. […] Within this peptide fraction, detailed MS analysis identified several scrambled peptides that also bound 7E11, including peptides with deamination at Asn115 and Gln117, addition of Alanine at 112 or 113, or addition of Serine at 114 (Table 3).
The […] (SEQ ID NO:1) peptide was also digested with the endoprotease Asp-N and 7E11 binding was tested. Endoprotease Asp-N cleaved the peptide into 3 peptide fragments, L, DLS and […] (SEQ ID NO: 36). Of these products, 7E11 bound the […] (SEQ ID NO:36) peptide. Taken together, the trypsin and Asp-N cleavage data further localize the 7E11 binding epitope to the sequence shared between them, DNAQLR (SEQ ID NO: 37).

[3] = system: 7E11; experiment: 7E11 binding to immobilized point-mutant peptides (MaxiSorp plate, serial dilutions of 7E11); design: species or system murine; conditions: 7E11 binding to immobilized peptide
Description: To verify these contact points, several peptides containing point mutations within the […] sequence (SEQ ID NO: 27) were generated and tested for 7E11 binding. The peptides were immobilized on a MaxiSorp™ plate (Nunc™) and serial dilutions of 7E11 were applied. […] The most significant change in EC50 was observed when Arg 119 was mutated to Alanine.

[4] = system: NogoA, NogoB, NogoC, MAG and OM-gp binding to Nogo receptor-1; experiment: Soluble Nogo receptors block ligand binding to Nogo receptor-1
[5] = system: DRG neurons, myelin-mediated inhibition of neurite outgrowth; experiment: Neurite outgrowth assay, P3-4 rat DRG neurons, myelin mixed with test protein (Example 10); type: cell-based; conditions: mixed with CNS myelin, FIGS. 9-11
Description: Lab-Tek® culture slides (4 wells) were coated with 0.1 mg/ml poly-D-lysine (Sigma®). CNS myelin alone or mixed with sNogoR310, sNogoR310-Fc fusion protein, mAb 5B10 or control PBS were separately spotted as 3 μl drops. Fluorescent microspheres (Polysciences) were added to the myelin/PBS to allow later identification of the drops (Grandpre et al., Nature 403:439-444 (2000)). Lab-Tek® slides were then rinsed and coated with 10 μg/ml laminin (Gibco™).
Dorsal root ganglions (DRG's) from P3-4 Sprague Dawley rat pups were dissociated with 1 mg/ml collagenase type 1 (Worthington), triturated with fire-polished Pasteur pipettes pre-plated to enrich in neuronal cells and finally plated at 23,000 cells/well on the pre-coated Labtek culture slides. The culture medium was F12 containing 5% heat inactivated donor horse serum, 5% heat inactivated fetal bovine serum and 50 ng/ml mNGF and incubated at 37° C. and 5% CO2 for 6 hours.
Slides were fixed for 20 minutes with 4% paraformaldehyde containing 20% sucrose and stained for the neuronal marker anti beta-III-tubulin (Covance TUJ1) diluted 1:500. As secondary antibody anti-mouse Alexa Fluor® 594 (Molecular Probes) was diluted 1:300 and slides were coverslipped with Gel/Mount™ (Biømeda™). 5× digital images were acquired with OpenLab™ software and analyzed by using the MetaMorph® software for quantification of neurite outgrowth.

[6] = biological target: T1, MAG + sNogoR344-Fc (Rattus norvegicus, UniProt Q99M75, A303T/C287S/C43R/E284G/T53A); experiment: ELISA: inhibition of MAG binding to sNogoR344-Fc
T1 construct: amino acid residues 26-344 of rat Nogo receptor-1; made in house; CHO (DG44) is described only for sNogoR310-Fc
T1 sequence (Q99M75 26-344 C43R/T53A/E284G/C287S/A303T): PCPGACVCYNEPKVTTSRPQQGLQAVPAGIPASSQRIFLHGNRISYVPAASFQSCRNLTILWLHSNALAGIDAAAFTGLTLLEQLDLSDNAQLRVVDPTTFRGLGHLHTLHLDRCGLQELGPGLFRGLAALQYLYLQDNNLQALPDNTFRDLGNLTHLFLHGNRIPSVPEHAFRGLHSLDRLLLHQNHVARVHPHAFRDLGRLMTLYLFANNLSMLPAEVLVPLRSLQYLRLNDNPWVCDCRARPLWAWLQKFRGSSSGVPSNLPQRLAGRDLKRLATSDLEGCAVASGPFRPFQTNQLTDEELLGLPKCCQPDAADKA
Description: (§1) 0.5 μg of a soluble Nogo receptor-1 fusion protein comprising amino acid residues 26-344 of rat Nogo receptor-1 and the hinge and Fc region of the rat IgG1 molecule (sNogoR344-Fc) produced as described below was immobilized on […] of protein-A- or wheatgerm agglutinin-conjugated SPA beads (Amersham Pharmacia Biotech) for 2 hours at 25° C. SPA beads coupled with Fc-sNogoR-1, anti-Nogo receptor-1 mAb and 1 μl ^125I-Nogo66 (Amersham, 2000 Ci/mmol, 1 nM) in […] of the HEPES-buffered incubation medium (10 mM HEPES, pH 7.4, 0.1% bovine serum albumin, 0.1% ovalbumin, 2 mM MgCl2, 2 mM CaCl2 and protease inhibitors) was added to each sample well. After 16 hours, radioactivity was measured in quadruplicate samples using a TopCount® (Packard). IC50 values were calculated from a curve-fit analysis (FIG. 3) (PRISM, GraphPad Software, NJ). In some experiments, we also used AP-ligand conjugates (e.g. AP-Nogo66) and detected binding by monitoring alkaline phosphatase activity. We also assayed the ability of the mAbs to block binding of the ligands MAG-Fc and AP-OM-gp to Nogo receptor-1.
(§2) Monoclonal antibodies 7E11, 5B10, 1H2, 3G5 and 2F7 all inhibited binding of Nogo66, MAG and OM-gp to sNogoR344-Fc. The calculated IC50 for Nogo66 for 7E11 and 1H2 were 400 nM and 60 nM, respectively. The data from ELISAs monitoring mAb-mediated inhibition of binding of the three ligands to Nogo receptor-1 are summarized in Table 6.
(§3) The percent displacement is shown at 30 nM antibody and the EC50 for certain mAbs determined from curve-fit analysis as described. “-” indicates no detectable activity and “ND” indicates not determined.
(§4) We also performed ELISA binding assays using the Fab-phage 141)5.

[7] = biological target: T2, Nogo66 + sNogoR344-Fc (Rattus norvegicus, UniProt Q99M75, A303T/C287S/C43R/E284G/T53A); experiment: ELISA: inhibition of Nogo66 binding to sNogoR344-Fc
T2 construct: amino acid residues 26-344 of rat Nogo receptor-1; made in house
T2 sequence (Q99M75 26-344 C43R/T53A/E284G/C287S/A303T): T1 sequence (Q99M75 26-344 C43R/T53A/E284G/C287S/A303T)
Description: as §1, §2, §3, §4

[8] = biological target: T3, panel of Nogo receptor-1 polypeptides (sNogoR310-Fc, sNogoR344-Fc, p-617, p-618, p-4, p-5) (Rattus norvegicus, UniProt Q99M75); experiment: Antibody specificity ELISA with a panel of Nogo receptor-1 polypeptides; type: binding
T3 construct: made in house
Description: To determine the specificity of the monoclonal and Fab-phage antibodies produced in Examples 1 and 2, we performed an ELISA using a panel of Nogo receptor-1 polypeptides. The panel consisted of sNogoR310-Fc (a fusion protein comprising amino acids 26-310 of rat Nogo receptor-1 and a rat Fc fragment), sNogoR344-Fc (see supra), polypeptide p-617 (SEQ ID NO: 1), polypeptide p-618 (a 19-amino acid polypeptide from the LRR7 region of rat Nogo receptor-1; FIG. 2; SEQ ID NO: 11) and polypeptides p-4 and p-5 (polypeptides from the LRR5 and LRRCT regions of Nogo receptor-1, respectively). Ovalbumin and BSA were used as controls.

[9] = biological target: T4, OM-gp + sNogoR344-Fc (Rattus norvegicus, UniProt Q99M75, A303T/C287S/C43R/E284G/T53A); experiment: ELISA: inhibition of OM-gp binding to sNogoR344-Fc
T4 construct: amino acid residues 26-344 of rat Nogo receptor-1; made in house; CHO (DG44) is described only for sNogoR310-Fc
T4 sequence (Q99M75 26-344 C43R/T53A/E284G/C287S/A303T): T1 sequence (Q99M75 26-344 C43R/T53A/E284G/C287S/A303T)
Description: as §1, §2, §3, §4

Molecule: C[C@H]1C[C@@H]2[C@H]([C@@H](O)C[C@@]3(C)[C@H]2CC[C@]3(O)C(=O)CO)[C@@]2(C)C=CC(=O)C=C12 [MP, methylprednisolone, reference compound]
- effect on neurite outgrowth on a myelin substrate [1]: no effect

- peptide bound by 7E11 [2]: bound
Molecule: AAAFTGLTLLEQLDLSDNAQLR (Rattus) [tryptic digest peptide of sNgR310]

- peptide bound by 7E11 [2]: bound
Molecule: DNAQLRVVDPTT (sequence also found in Rattus; listed as Homo Sapiens)

- increase of EC50 relative to the original peptide [3]: 30 fold
Molecule: LDLSDNAALRVVDPTT [Q117A]

- increase of EC50 relative to the original peptide [3]: 25 fold
Molecule: LDLSDNAQLHVVDPTT [R119H]

- peptide bound by 7E11 [2]: bound
Molecule: LDLSDNAQLR (sequence also found in Rattus; listed as Homo Sapiens)

- block of binding of NogoA, NogoB, NogoC, MAG and OM-gp to Nogo receptor-1 [4]: block
B1: sNogoR344: soluble Nogo receptor-1 polypeptide, residues 26-344 of SEQ ID NOs: 6 and 8 or 27-344 of SEQ ID NO: 8 (protein, listed as Homo sapiens)
chain: PCPGACVCYNEPKVTTSCPQQGLQAVPVGIPAASQRIFLHGNRISHVPAASFRACRNLTILWLHSNVLARIDAAAFTGLALLEQLDLSDNAQLRSVDPATFHGLGRLHTLHLDRCGLQELGPGLFRGLAALQYLYLQDNALQALPDDTFRDLGNLTHLFLHGNRISSVPERAFRGLHSLDRLLLHQNRVAHVHPHAFRDLGRLMTLYLFANNLSALPTEALAPLRALQYLRLNDNPWVCDCRARPLWAWLQKFRGSSSEVPCSLPQRLAGRDLKRLAANDLQGCAVATGPYHPIWTGRATDEEPLGLPKCCQPDAADKA

- inhibition of binding of MAG to sNogoR344-Fc [6]: inhibited
- inhibition of binding of Nogo66 to sNogoR344-Fc [7]: inhibited
- binding to polypeptide p-617 (SEQ ID NO: 1) [8]: specifically bound
- inhibition of binding of OM-gp to sNogoR344-Fc [9]: inhibited
B2: 5B10: murine monoclonal anti-Nogo receptor-1 antibody, immunogen rat Nogo receptor-1 residues 110-125, ATCC PTA-4588 (antibody, V domains shown)
VH: LQXSGAEIVMPGTAVTMSCKASGYTFTDFWMHWVKQRPGQGLEWIGAIDPSDSYSRINQKFKGKATLTVDESSSTAYMQLSSLTSEDSAVYYCARRITEAGAWFAYWGQGTTVT
VL: MKLPVRLLVLMFWIPASSSDVVMTQTPLSLPVSLGDQASISCRSSQSLVHSNGYTYLHWYLQRPGQSPKLLIYKVSNRFSGVPDRFSGSGSGTDFTLKISRVDAEDLGVYFCSQSTHVPYTFGGGTKLEIKRADAAPTVSISHH
modifications: not fully specified; 5B10 heavy chain; 5B10 light chain
- protection of DRG neurons from myelin-mediated inhibition of neurite outgrowth [5]: protected
